Legend:
Assay in all cases: In-water applied herbicidal activity in transplanted paddy rice
Format in all cases: in vivo
[1] = system: SCPJU = Scirpus juncoides ROXB. (Japanese bulrush); conditions: for GR50 SCPJU: Table 7, dose to kill or control 50 percent; for GR50 SCPJU / GR90 SCPJU: 21 days after application; for GR90 SCPJU: Table 7, dose to kill or control 90 percent
Method: (§1) Weed seeds or nutlets of the desired test plant species were planted in puddled soil (mud) prepared by mixing a non-sterilized mineral soil (28 percent silt, 18 percent clay, and 54 percent sand, with a pH of about 7.3 to 7.8 and an organic matter content of about 1.0 percent) and water at a ratio of 100 kilograms (kg) of soil to 19 liters (L) of water. The prepared mud was dispensed in 250 mL aliquots into 480 mL non-perforated plastic pots with a surface area of 86.59 cm^2 leaving a headspace of 2.5 to 3 cm in each pot. Rice seeds were planted in Sun Gro MetroMix 306 planting mixture, which typically has a pH of 6.0 to 6.8 and an organic matter content of about 30 percent, in plastic plug trays. Seedlings at the second or third leaf stage of growth were transplanted into 650 mL of mud contained in 960 mL non-perforated plastic pots with a surface area of 86.59 cm^2 four days prior to herbicide application. The paddy was created by filling the 2.5 to 3 cm headspace of the pots with water. When required to ensure good germination and healthy plants, a fungicide treatment and/or other chemical or physical treatment was applied. The plants were grown for 4-14 d in a greenhouse with an approximate 14-h photoperiod which was maintained at about 29° C. during the day and 26° C. during the night. Nutrients were added as Osmocote (17:6:10, Nitrogen:Phosphorus:Potassium (N:P:K)+minor nutrients) at 2 grams (g) per cup. Water was added on a regular basis to maintain the paddy flood, and supplemental lighting was provided with overhead metal halide 1000-Watt lamps as necessary. The plants were employed for testing when they reached the second or third true leaf stage. Treatments consisted of compounds 45, 34, and 66. For technical grade compounds, a weighed amount, determined by the highest rate to be tested, was placed in an individual 120 mL glass vial and was dissolved in 20 mL of acetone to obtain concentrated stock solutions. […] The concentrated stock solutions obtained were diluted with 20 mL of an aqueous mixture containing 2.5% Agri-dex crop oil concentrate (v/v). Applications were made by injecting an appropriate amount of the stock solution into the aqueous layer of the paddy. Control plants were treated in the same manner with the solvent blank. All treated plant material received the same concentration of acetone and crop oil concentrate. The treated plants and control plants were placed in a greenhouse as described above and water was added as needed to maintain a paddy flood. After approximately 3 weeks, the condition of the test plants, compared with that of the untreated plants, was determined visually and scored on a scale of 0 to 100 percent where 0 corresponds to no injury and 100 corresponds to complete kill. By applying the well-accepted probit analysis as described by J. Berkson in Journal of the […], 48, 565 (1953) and by D. Finney in “Probit Analysis” Cambridge University Press (1952) or by plotting the mean data and fitting a logarithmic curve to the portion of the data where there was a dose response using Microsoft Excel®, the above data can be used to calculate GR50 and GR90 values, which are defined as growth reduction factors that correspond to the effective dose of herbicide required to kill or control 50 percent or 90 percent, respectively, of a target plant.

[2] = system: CYPDI = Cyperus difformis L. (small-flower flatsedge); conditions: for GR50 CYPDI: Table 7, dose to kill or control 50 percent; for GR50 CYPDI / GR90 CYPDI: 21 days after application; for GR90 CYPDI: Table 7, dose to kill or control 90 percent
Method: as §1

[3] = system: ORYSA = Oryza sativa ‘M202’ (rice); conditions: for GR50 ORYSA ‘M202’: Table 7, dose to kill or control 50 percent; for GR50 ORYSA ‘M202’ / GR90 ORYSA ‘M202’: 21 days after application; for GR90 ORYSA ‘M202’: Table 7, dose to kill or control 90 percent
Method: as §1

[4] = system: ECHCG = Echinochloa crus-galli (L.) P.BEAUV. (barnyardgrass); conditions: for GR50 ECHCG: Table 7, dose to kill or control 50 percent; for GR50 ECHCG / GR90 ECHCG: 21 days after application; for GR90 ECHCG: Table 7, dose to kill or control 90 percent
Method: as §1

[5] = system: MOOVA = Monochoria vaginalis (BURM.f.) C.PRESL ex KUNTH (monochoria); conditions: for GR50 MOOVA: Table 7, dose to kill or control 50 percent; for GR50 MOOVA / GR90 MOOVA: 21 days after application; for GR90 MOOVA: Table 7, dose to kill or control 90 percent
Method: as §1

[6] = system: ORYSA = Oryza sativa ‘Wells’ (rice); conditions: for GR50 ORYSA ‘Wells’: Table 7, dose to kill or control 50 percent; for GR50 ORYSA ‘Wells’ / GR90 ORYSA ‘Wells’: 21 days after application; for GR90 ORYSA ‘Wells’: Table 7, dose to kill or control 90 percent
Method: as §1

## COC(=O)c1nc(-c2ccc(Cl)c(OC)c2F)c(F)c(N)c1OC [Compound 34]
[1]; Table 7, 8.75 g ae/ha
  Mean Visual Injury (%)-21 Days After Application SCPJU: 67%
[1]; Table 7, 17.5 g ae/ha
  Mean Visual Injury (%)-21 Days After Application SCPJU: 90%
[1]; Table 7, 35 g ae/ha
  Mean Visual Injury (%)-21 Days After Application SCPJU: 100%
[1]; Table 7, 70 g ae/ha
  Mean Visual Injury (%)-21 Days After Application SCPJU: 100%
[1]; Table 7, 140 g ae/ha
  Mean Visual Injury (%)-21 Days After Application SCPJU: 100%
[1]
  GR50 SCPJU: <8.75 g ae/ha
  GR90 SCPJU: 21.1 g ae/ha
[2]; Table 7, 8.75 g ae/ha
  Mean Visual Injury (%)-21 Days After Application CYPDI: 100%
[2]; Table 7, 17.5 g ae/ha
  Mean Visual Injury (%)-21 Days After Application CYPDI: 100%
[2]; Table 7, 35 g ae/ha
  Mean Visual Injury (%)-21 Days After Application CYPDI: 100%
[2]; Table 7, 70 g ae/ha
  Mean Visual Injury (%)-21 Days After Application CYPDI: 100%
[2]; Table 7, 140 g ae/ha
  Mean Visual Injury (%)-21 Days After Application CYPDI: 100%
[2]
  GR50 CYPDI: <8.75 g ae/ha
  GR90 CYPDI: <8.75 g ae/ha
[3]; Table 7, 8.75 g ae/ha
  Mean Visual Injury (%)-21 Days After Application ORYSA ‘M202’: 0%
[3]; Table 7, 17.5 g ae/ha
  Mean Visual Injury (%)-21 Days After Application ORYSA ‘M202’: 0%
[3]; Table 7, 35 g ae/ha
  Mean Visual Injury (%)-21 Days After Application ORYSA ‘M202’: 0%
[3]; Table 7, 70 g ae/ha
  Mean Visual Injury (%)-21 Days After Application ORYSA ‘M202’: 7%
[3]; Table 7, 140 g ae/ha
  Mean Visual Injury (%)-21 Days After Application ORYSA ‘M202’: 8%
[3]
  GR50 ORYSA ‘M202’: >140 g ae/ha
  GR90 ORYSA ‘M202’: >140 g ae/ha
[4]; Table 7, 8.75 g ae/ha
  Mean Visual Injury (%)-21 Days After Application ECHCG: 0%
[4]; Table 7, 17.5 g ae/ha
  Mean Visual Injury (%)-21 Days After Application ECHCG: 7%
[4]; Table 7, 35 g ae/ha
  Mean Visual Injury (%)-21 Days After Application ECHCG: 90%
[4]; Table 7, 70 g ae/ha
  Mean Visual Injury (%)-21 Days After Application ECHCG: 98%
[4]; Table 7, 140 g ae/ha
  Mean Visual Injury (%)-21 Days After Application ECHCG: 100%
[4]
  GR50 ECHCG: 25.4 g ae/ha
  GR90 ECHCG: 52.9 g ae/ha
[5]; Table 7, 8.75 g ae/ha
  Mean Visual Injury (%)-21 Days After Application MOOVA: 100%
[5]; Table 7, 17.5 g ae/ha
  Mean Visual Injury (%)-21 Days After Application MOOVA: 100%
[5]; Table 7, 35 g ae/ha
  Mean Visual Injury (%)-21 Days After Application MOOVA: 100%
[5]; Table 7, 70 g ae/ha
  Mean Visual Injury (%)-21 Days After Application MOOVA: 100%
[5]; Table 7, 140 g ae/ha
  Mean Visual Injury (%)-21 Days After Application MOOVA: 100%
[5]
  GR50 MOOVA: <8.75 g ae/ha
  GR90 MOOVA: <8.75 g ae/ha
[6]; Table 7, 8.75 g ae/ha
  Mean Visual Injury (%)-21 Days After Application ORYSA ‘Wells’: 0%
[6]; Table 7, 17.5 g ae/ha
  Mean Visual Injury (%)-21 Days After Application ORYSA ‘Wells’: 0%
[6]; Table 7, 35 g ae/ha
  Mean Visual Injury (%)-21 Days After Application ORYSA ‘Wells’: 0%
[6]; Table 7, 70 g ae/ha
  Mean Visual Injury (%)-21 Days After Application ORYSA ‘Wells’: 0%
[6]; Table 7, 140 g ae/ha
  Mean Visual Injury (%)-21 Days After Application ORYSA ‘Wells’: 5%
[6]
  GR50 ORYSA ‘Wells’: >140 g ae/ha
  GR90 ORYSA ‘Wells’: >140 g ae/ha

## COc1c(C(=O)O)nc(-c2ccc(Cl)c(OC)c2F)c(F)c1N [Compound 45, 4-amino-6-(4-chloro-2-fluoro-3-methoxyphenyl)-5-fluoro-3-methoxypicolinic acid]
[1]; Table 7, 8.75 g ae/ha
  Mean Visual Injury (%)-21 Days After Application SCPJU: 10%
[1]; Table 7, 17.5 g ae/ha
  Mean Visual Injury (%)-21 Days After Application SCPJU: 63%
[1]; Table 7, 35 g ae/ha
  Mean Visual Injury (%)-21 Days After Application SCPJU: 93%
[1]; Table 7, 70 g ae/ha
  Mean Visual Injury (%)-21 Days After Application SCPJU: 100%
[1]; Table 7, 140 g ae/ha
  Mean Visual Injury (%)-21 Days After Application SCPJU: 100%
[1]
  GR50 SCPJU: 16.8 g ae/ha
  GR90 SCPJU: 42.4 g ae/ha
[2]; Table 7, 8.75 g ae/ha
  Mean Visual Injury (%)-21 Days After Application CYPDI: 67%
[2]; Table 7, 17.5 g ae/ha
  Mean Visual Injury (%)-21 Days After Application CYPDI: 100%
[2]; Table 7, 35 g ae/ha
  Mean Visual Injury (%)-21 Days After Application CYPDI: 100%
[2]; Table 7, 70 g ae/ha
  Mean Visual Injury (%)-21 Days After Application CYPDI: 100%
[2]; Table 7, 140 g ae/ha
  Mean Visual Injury (%)-21 Days After Application CYPDI: 100%
[2]
  GR50 CYPDI: <8.75 g ae/ha
  GR90 CYPDI: 14.2 g ae/ha
[3]; Table 7, 8.75 g ae/ha
  Mean Visual Injury (%)-21 Days After Application ORYSA ‘M202’: 0%
[3]; Table 7, 17.5 g ae/ha
  Mean Visual Injury (%)-21 Days After Application ORYSA ‘M202’: 0%
[3]; Table 7, 35 g ae/ha
  Mean Visual Injury (%)-21 Days After Application ORYSA ‘M202’: 0%
[3]; Table 7, 70 g ae/ha
  Mean Visual Injury (%)-21 Days After Application ORYSA ‘M202’: 0%
[3]; Table 7, 140 g ae/ha
  Mean Visual Injury (%)-21 Days After Application ORYSA ‘M202’: 12%
[3]
  GR50 ORYSA ‘M202’: >140 g ae/ha
  GR90 ORYSA ‘M202’: >140 g ae/ha
[4]; Table 7, 8.75 g ae/ha
  Mean Visual Injury (%)-21 Days After Application ECHCG: 0%
[4]; Table 7, 17.5 g ae/ha
  Mean Visual Injury (%)-21 Days After Application ECHCG: 0%
[4]; Table 7, 35 g ae/ha
  Mean Visual Injury (%)-21 Days After Application ECHCG: 30%
[4]; Table 7, 70 g ae/ha
  Mean Visual Injury (%)-21 Days After Application ECHCG: 100%
[4]; Table 7, 140 g ae/ha
  Mean Visual Injury (%)-21 Days After Application ECHCG: 100%
[4]
  GR50 ECHCG: 38.4 g ae/ha
  GR90 ECHCG: 66.8 g ae/ha
[5]; Table 7, 8.75 g ae/ha
  Mean Visual Injury (%)-21 Days After Application MOOVA: 100%
[5]; Table 7, 17.5 g ae/ha
  Mean Visual Injury (%)-21 Days After Application MOOVA: 100%
[5]; Table 7, 35 g ae/ha
  Mean Visual Injury (%)-21 Days After Application MOOVA: 100%
[5]; Table 7, 70 g ae/ha
  Mean Visual Injury (%)-21 Days After Application MOOVA: 100%
[5]; Table 7, 140 g ae/ha
  Mean Visual Injury (%)-21 Days After Application MOOVA: 100%
[5]
  GR50 MOOVA: <8.75 g ae/ha
  GR90 MOOVA: <8.75 g ae/ha
[6]; Table 7, 8.75 g ae/ha
  Mean Visual Injury (%)-21 Days After Application ORYSA ‘Wells’: 0%
[6]; Table 7, 17.5 g ae/ha
  Mean Visual Injury (%)-21 Days After Application ORYSA ‘Wells’: 0%
[6]; Table 7, 35 g ae/ha
  Mean Visual Injury (%)-21 Days After Application ORYSA ‘Wells’: 0%
[6]; Table 7, 70 g ae/ha
  Mean Visual Injury (%)-21 Days After Application ORYSA ‘Wells’: 0%
[6]; Table 7, 140 g ae/ha
  Mean Visual Injury (%)-21 Days After Application ORYSA ‘Wells’: 7%
[6]
  GR50 ORYSA ‘Wells’: >140 g ae/ha
  GR90 ORYSA ‘Wells’: >140 g ae/ha

Reference: patent US9518018B2, “3-alkoxy, thioalkyl and amino-4-amino-6-(substituted)picolinates and their use as herbicides” (Dow AgroSciences LLC, priority 2011, dated 2016)
